Source: ChEMBL document CHEMBL5226311, “Recent Progress on Tubulin Inhibitors with Dual Targeting Capabilities for Cancer Therapy” (J Med Chem, 2021)

How the values were obtained:
DLD-1 = assay: Antiproliferative activity against MTAs-resistant human DLD-1 cells overexpressing P-gp assessed as cell growth inhibition; assay type: functional, cell-based
[1] = Antiproliferative activity against human U87 cells assessed as cell growth inhibition; assay type: functional, cell-based, U-87MG ATCC; details: U-87 MG
[2] = Antiproliferative activity against human U87MG Human EGFR vIII cells assessed as cell growth inhibition; assay type: functional, cell-based
A 172 = assay: Antiproliferative activity against human A-172 cells assessed as cell growth inhibition; assay type: functional, cell-based
U-251 = assay: Antiproliferative activity against human U-251 cells assessed as cell growth inhibition; assay type: functional, cell-based
NCI-H460 [3] = assay: Antitumor activity against human NCI-H460 cells xenografted in mouse assessed as inhibition of tumor growth at 30 mg/kg relative to control; assay type: functional; details: read-out: TGI
NCI-H460 [4] = assay: Antiproliferative activity against human NCI-H460 cells expressing TaxR assessed as cell growth inhibition; assay type: functional, cell-based
NCI-H460 [5] = assay: Antiproliferative activity against human NCI-H460 cells assessed as cell growth inhibition; assay type: functional, cell-based
NCI-H460 [6] = assay: Antitumor activity against human NCI-H460 cells expressing TaxR xenografted in mouse assessed as inhibition of tumor growth at 30 mg/kg relative to control; assay type: functional; details: read-out: TGI
HCT-116 [7] = assay: Antiproliferative activity against human HCT-116 cells assessed as cell growth inhibition measured after 72 hrs by MTT assay; assay type: functional, cell-based; details: HCT-116, 72 h
HT-29 = assay: Antiproliferative activity against human HT-29 cells assessed as cell growth inhibition measured after 72 hrs by MTT assay; assay type: functional, cell-based; details: HT-29, 72 h
NCI-H460 [8] = assay: Antiproliferative activity against human NCI-H460 cells assessed as cell growth inhibition measured after 72 hrs by MTT assay; assay type: functional, cell-based; details: NCI-H460, 72 h
A549 [9] = assay: Antiproliferative activity against human A549 cells assessed as cell growth inhibition measured after 72 hrs by MTT assay; assay type: functional, cell-based; details: A549, 72 h
A2780S = assay: Antiproliferative activity against human A2780S cells assessed as cell growth inhibition measured after 72 hrs by MTT assay; assay type: functional, cell-based
SK-OV-3 = assay: Antiproliferative activity against human SK-OV-3 cells assessed as cell growth inhibition measured after 72 hrs by MTT assay; assay type: functional, cell-based; details: SK-OV-3, 72 h
MCF7 [10] = assay: Antiproliferative activity against human MCF7 cells assessed as cell growth inhibition measured after 72 hrs by MTT assay; assay type: functional, cell-based; details: MCF7, 72 h
MDA-MB-231 = assay: Antiproliferative activity against human MDA-MB-231 cells assessed as cell growth inhibition measured after 72 hrs by MTT assay; assay type: functional, cell-based; details: MDA-MB-231, 72 h
A-375 = assay: Antiproliferative activity against human A-375 cells assessed as cell growth inhibition measured after 72 hrs by MTT assay; assay type: functional, cell-based; details: A-375, 72 h
HepG2 = assay: Antiproliferative activity against human HepG2 cells assessed as cell growth inhibition measured after 72 hrs by MTT assay; assay type: functional, cell-based; details: HepG2, 72 h
MM1.S = assay: Antiproliferative activity against human MM1.S cells assessed as cell growth inhibition measured after 72 hrs by MTT assay; assay type: functional, cell-based
RPMI-8226 = assay: Antiproliferative activity against human RPMI-8226 cells assessed as cell growth inhibition measured after 72 hrs by MTT assay; assay type: functional, cell-based; details: RPMI-8226, 72 h
[11] = Antiproliferative activity against human ARD cells assessed as cell growth inhibition measured after 72 hrs by MTT assay; assay type: functional, cell-based
U-266 = assay: Antiproliferative activity against human U-266 cells assessed as cell growth inhibition measured after 72 hrs by MTT assay; assay type: functional, cell-based; details: U-266, 72 h
Ramos = assay: Antiproliferative activity against human Ramos cells assessed as cell growth inhibition measured after 72 hrs by MTT assay; assay type: functional, cell-based
[12] = Antiproliferative activity against human HBL1 cells assessed as cell growth inhibition measured after 72 hrs by MTT assay; assay type: functional, cell-based; details: HBL1, 72 h
JeKo-1 = assay: Antiproliferative activity against human JeKo-1 cells assessed as cell growth inhibition measured after 72 hrs by MTT assay; assay type: functional, cell-based; details: JeKo-1, 72 h
[13] = Antiproliferative activity against human LAMA84-s cells assessed as cell growth inhibition measured after 72 hrs by MTT assay; assay type: functional, cell-based
K562 [14] = assay: Antiproliferative activity against human K562 cells assessed as cell growth inhibition measured after 72 hrs by MTT assay; assay type: functional, cell-based; details: K562, 72 h
MV4-11 = assay: Antiproliferative activity against human MV4-11 cells assessed as cell growth inhibition measured after 72 hrs by MTT assay; assay type: functional, cell-based; details: MV4-11, 72 h
[15] = Antiproliferative activity against human KB/VCR cells assessed as cell growth inhibition; assay type: functional, cell-based
MES-SA/Dx5 = assay: Antiproliferative activity against human MES-SA/Dx5 cells assessed as cell growth inhibition; assay type: functional, cell-based
HL60/MX2 = assay: Antiproliferative activity against human HL60/MX2 cells assessed as cell growth inhibition; assay type: functional, cell-based
KB [16] = assay: Antiproliferative activity against human KB cells assessed as cell growth inhibition; assay type: functional, cell-based
KB [17] = assay: Antiproliferative activity against vincristine-resistant human KB cells assessed as cell growth inhibition; assay type: functional, cell-based
KB [18] = assay: Antiproliferative activity against etoposide-resistant human KB cells assessed as cell growth inhibition; assay type: functional, cell-based
EA.hy 926 = assay: Antiproliferative activity against human EA.hy 926 cells assessed as cell growth inhibition; assay type: functional, cell-based
Tubulin [19] = assay: Inhibition of tubulin depolymerization (unknown origin); assay type: protein-complex assay, Homo sapiens
HONE1 cell line = assay: Antiproliferative activity against human HONE1 cell line assessed as cell growth inhibition; assay type: functional, cell-based
HCT-116 [20] = assay: Antiproliferative activity against human HCT-116 cells assessed as cell growth inhibition; assay type: functional, cell-based
A549 [21] = assay: Antiproliferative activity against human A549 cells assessed as cell growth inhibition; assay type: functional, cell-based
MCF7 [22] = assay: Antiproliferative activity against human MCF7 cells assessed as cell growth inhibition; assay type: functional, cell-based
[23] = target: Epidermal growth factor receptor (Homo sapiens, UniProt P00533); assay: Inhibition of EGFR (unknown origin)
Epidermal growth factor receptor, sequence (P00533 whole entry): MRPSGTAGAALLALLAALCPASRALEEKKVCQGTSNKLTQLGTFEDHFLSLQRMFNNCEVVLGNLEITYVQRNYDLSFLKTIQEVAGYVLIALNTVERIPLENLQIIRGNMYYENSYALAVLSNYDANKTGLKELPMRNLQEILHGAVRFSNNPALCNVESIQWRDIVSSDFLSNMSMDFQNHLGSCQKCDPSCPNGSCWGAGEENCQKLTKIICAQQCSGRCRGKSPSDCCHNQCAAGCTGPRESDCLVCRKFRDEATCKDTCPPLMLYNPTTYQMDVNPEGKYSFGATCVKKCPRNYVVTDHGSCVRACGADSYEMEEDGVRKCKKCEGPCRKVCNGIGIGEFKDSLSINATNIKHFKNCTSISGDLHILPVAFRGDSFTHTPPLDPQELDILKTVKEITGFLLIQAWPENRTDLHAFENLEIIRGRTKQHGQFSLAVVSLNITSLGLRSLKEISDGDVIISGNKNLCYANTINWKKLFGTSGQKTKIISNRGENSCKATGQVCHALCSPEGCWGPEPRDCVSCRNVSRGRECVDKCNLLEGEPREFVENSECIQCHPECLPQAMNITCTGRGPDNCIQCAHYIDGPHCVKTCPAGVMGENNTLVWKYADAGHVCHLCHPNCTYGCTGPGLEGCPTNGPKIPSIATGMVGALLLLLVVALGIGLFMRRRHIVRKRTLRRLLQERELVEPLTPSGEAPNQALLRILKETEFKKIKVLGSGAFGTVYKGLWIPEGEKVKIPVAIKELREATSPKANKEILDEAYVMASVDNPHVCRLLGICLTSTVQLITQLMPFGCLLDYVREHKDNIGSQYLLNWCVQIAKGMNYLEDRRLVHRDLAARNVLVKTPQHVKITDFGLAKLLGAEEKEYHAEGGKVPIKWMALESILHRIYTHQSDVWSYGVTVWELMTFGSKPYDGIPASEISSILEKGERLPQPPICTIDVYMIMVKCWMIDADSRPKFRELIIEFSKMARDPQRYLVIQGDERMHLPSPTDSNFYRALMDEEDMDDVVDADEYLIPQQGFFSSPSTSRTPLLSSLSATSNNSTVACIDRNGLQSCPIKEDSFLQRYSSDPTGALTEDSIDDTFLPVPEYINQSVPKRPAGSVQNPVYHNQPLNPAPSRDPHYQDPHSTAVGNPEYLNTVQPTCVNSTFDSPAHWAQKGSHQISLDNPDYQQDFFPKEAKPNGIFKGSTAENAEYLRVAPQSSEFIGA

[24] = target: Vascular endothelial growth factor receptor 2 (Homo sapiens, UniProt P35968); assay: Inhibition of VEGFR2 (unknown origin)
Vascular endothelial growth factor receptor 2, sequence (P35968 whole entry): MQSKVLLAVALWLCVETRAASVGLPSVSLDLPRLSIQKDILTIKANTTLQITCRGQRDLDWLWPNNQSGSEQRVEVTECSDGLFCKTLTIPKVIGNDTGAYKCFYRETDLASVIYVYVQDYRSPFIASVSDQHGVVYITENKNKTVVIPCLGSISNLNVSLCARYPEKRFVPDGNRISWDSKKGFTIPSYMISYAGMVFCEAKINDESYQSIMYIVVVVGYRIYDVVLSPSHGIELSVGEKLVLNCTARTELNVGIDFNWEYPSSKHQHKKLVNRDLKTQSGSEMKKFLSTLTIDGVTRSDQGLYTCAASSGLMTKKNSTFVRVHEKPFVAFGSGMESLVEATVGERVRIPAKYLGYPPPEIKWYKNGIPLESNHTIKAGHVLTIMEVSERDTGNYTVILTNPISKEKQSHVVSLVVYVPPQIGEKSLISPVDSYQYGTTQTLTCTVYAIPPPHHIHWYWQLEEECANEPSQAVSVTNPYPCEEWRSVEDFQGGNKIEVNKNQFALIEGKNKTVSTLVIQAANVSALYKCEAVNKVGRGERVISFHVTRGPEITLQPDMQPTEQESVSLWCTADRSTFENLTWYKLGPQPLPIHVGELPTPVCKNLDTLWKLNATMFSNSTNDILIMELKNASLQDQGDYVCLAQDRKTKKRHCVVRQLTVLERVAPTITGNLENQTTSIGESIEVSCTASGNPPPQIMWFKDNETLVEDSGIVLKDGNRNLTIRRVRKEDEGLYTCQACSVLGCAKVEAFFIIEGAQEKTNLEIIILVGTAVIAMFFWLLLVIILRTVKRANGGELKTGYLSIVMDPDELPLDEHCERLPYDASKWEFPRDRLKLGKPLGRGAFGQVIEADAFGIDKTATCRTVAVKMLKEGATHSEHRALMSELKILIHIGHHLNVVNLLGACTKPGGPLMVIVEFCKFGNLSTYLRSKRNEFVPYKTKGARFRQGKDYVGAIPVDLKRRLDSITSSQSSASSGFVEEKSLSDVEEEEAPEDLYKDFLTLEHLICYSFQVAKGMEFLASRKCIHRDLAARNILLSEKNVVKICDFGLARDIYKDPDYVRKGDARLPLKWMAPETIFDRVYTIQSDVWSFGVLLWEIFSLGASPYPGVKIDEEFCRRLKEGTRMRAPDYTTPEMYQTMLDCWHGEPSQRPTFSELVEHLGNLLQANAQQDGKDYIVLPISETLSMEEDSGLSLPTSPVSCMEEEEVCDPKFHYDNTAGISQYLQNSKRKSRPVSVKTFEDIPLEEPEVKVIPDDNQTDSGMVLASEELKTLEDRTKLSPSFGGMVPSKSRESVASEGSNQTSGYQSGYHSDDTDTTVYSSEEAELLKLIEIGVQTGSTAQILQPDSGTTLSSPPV

MDA-MB-435 = assay: Antiproliferative activity against human MDA-MB-435 cells assessed as cell growth inhibition; assay type: functional
Tubulin [25] = assay: Inhibition of tubulin polymerization (unknown origin); assay type: protein-complex assay, Homo sapiens
HL-60(TB) = assay: Antiproliferative activity against human HL-60(TB) cells assessed as cell growth inhibition; assay type: functional
K562 [26] = assay: Antiproliferative activity against human K562 cells assessed as cell growth inhibition; assay type: functional
CCRF-CEM = assay: Antiproliferative activity against human CCRF-CEM cells assessed as cell growth inhibition; assay type: functional
NCI-H522 = assay: Antiproliferative activity against human NCI-H522 cells assessed as cell growth inhibition; assay type: functional
NCI-H322M = assay: Antiproliferative activity against human NCI-H322M cells assessed as cell growth inhibition; assay type: functional
KM12 = assay: Antiproliferative activity against human KM12 cells assessed as cell growth inhibition; assay type: functional
SW-620 = assay: Antiproliferative activity against human SW-620 cells assessed as cell growth inhibition; assay type: functional
HCT-15 = assay: Antiproliferative activity against human HCT-15 cells assessed as cell growth inhibition; assay type: functional
M14 = assay: Antiproliferative activity against human M14 cells assessed as cell growth inhibition; assay type: functional
LOX IMVI = assay: Antiproliferative activity against human LOX IMVI cells assessed as cell growth inhibition; assay type: functional
OVCAR-3 = assay: Antiproliferative activity against human OVCAR-3 cells assessed as cell growth inhibition; assay type: functional
NCI/ADR-RES = assay: Antiproliferative activity against human NCI/ADR-RES cells assessed as cell growth inhibition; assay type: functional
OVCAR-8 = assay: Antiproliferative activity against human OVCAR-8 cells assessed as cell growth inhibition; assay type: functional
A498 = assay: Antiproliferative activity against human A498 cells assessed as cell growth inhibition; assay type: functional
RXF 393 = assay: Antiproliferative activity against human RXF 393 cells assessed as cell growth inhibition; assay type: functional
SN12C = assay: Antiproliferative activity against human SN12C cells assessed as cell growth inhibition; assay type: functional
PC-3 = assay: Antiproliferative activity against human PC-3 cells assessed as cell growth inhibition; assay type: functional
DU-145 = assay: Antiproliferative activity against human DU-145 cells assessed as cell growth inhibition; assay type: functional
SF-539 = assay: Antiproliferative activity against human SF-539 cells assessed as cell growth inhibition; assay type: functional
SNB-75 = assay: Antiproliferative activity against human SNB-75 cells assessed as cell growth inhibition; assay type: functional
SF-295 = assay: Antiproliferative activity against human SF-295 cells assessed as cell growth inhibition; assay type: functional
Hs-578T = assay: Antiproliferative activity against human Hs-578T cells assessed as cell growth inhibition; assay type: functional
BT-549 = assay: Antiproliferative activity against human BT-549 cells assessed as cell growth inhibition; assay type: functional

## CCCCC(C#CC(=O)OC)O/C=C/C(=O)OC (stereo unspecified)
DLD-1
  IC50: 450 nM

## O=C(CCCc1ccc(-c2ccccc2F)cc1)Nc1ccc(O)cc1
[1]
  EC50: 600 nM
[2]
  EC50: 600 nM
A 172
  EC50: 600 nM
U-251
  EC50: 600 nM

## CN(C)c1ccc(/C=C2/SC(=Nc3ccccc3Cl)NC2=O)cc1
NCI-H460 [3]
  inhibition in vivo at 30 mg/kg: 62.4%
NCI-H460 [4]
  IC50: 800 nM
NCI-H460 [5]
  IC50: 700 nM
NCI-H460 [6]
  inhibition in vivo at 30 mg/kg: 60.4%

## COc1ccc(N(C)c2nc(C)nc3ccccc23)cc1OCCCC(=O)NO
HCT-116 [7]
  IC50: 31 nM
HT-29
  IC50: 31 nM
NCI-H460 [8]
  IC50: 31 nM
A549 [9]
  IC50: 31 nM
A2780S
  IC50: 31 nM
SK-OV-3
  IC50: 31 nM
MCF7 [10]
  IC50: 31 nM
MDA-MB-231
  IC50: 31 nM
A-375
  IC50: 31 nM
HepG2
  IC50: 31 nM
MM1.S
  IC50: 31 nM
RPMI-8226
  IC50: 31 nM
[11]
  IC50: 31 nM
U-266
  IC50: 31 nM
Ramos
  IC50: 31 nM
[12]
  IC50: 31 nM
JeKo-1
  IC50: 31 nM
[13]
  IC50: 31 nM
K562 [14]
  IC50: 31 nM
MV4-11
  IC50: 31 nM

## COc1ccc(O)c(C(=O)c2cnc3[nH]c4ccccc4c3c2)c1
[15]
  IC50: 400 nM
MES-SA/Dx5
  IC50: 160 nM
HL60/MX2
  IC50: 320 nM

## COc1ccc(S(=O)(=O)Nc2ccccc2NCc2ccc(C(=O)Nc3ccccc3N)cc2)cc1
KB [16]
  IC50: 12 nM
KB [17]
  IC50: 12 nM
KB [18]
  IC50: 22 nM

## COc1ccc(-c2ocnc2-c2cc(Br)c(OC)c(OC)c2)cc1OCCCC(=O)NO
EA.hy 926
  IC50: 18 nM

## COc1cc(C(=O)c2ccc3c(n2)C(=O)C(N2CCCC2)=CC3=O)cc(OC)c1OC
KB [16]
  IC50: 70 nM
Tubulin [19]
  IC50: 5.9 µM
HONE1 cell line
  IC50: 70 nM
HCT-116 [20]
  IC50: 70 nM

## COC(=O)NCCc1c(C(=O)c2cc(C(F)(F)F)cc(C(F)(F)F)c2)[nH]c2ccccc12
A549 [21]
  IC50: 2010 nM
MCF7 [22]
  IC50: 1300 nM

## COc1ccc(-c2cc(=O)oc3c(O)c(O)ccc23)cc1O
[23]
  IC50: 4.9 µM
[24]
  IC50: 5.5 µM

## COc1ccn2c(C(C)=O)cc(C(=O)c3ccc4c(c3)Sc3ccccc3N4)c2c1
MDA-MB-435
  GI50: 19 nM

## COc1ccc(C(=O)c2cc(C)c(OC)c(C)c2)cc1OC(=O)CCl
Tubulin [25]
  IC50: 1300 nM
A549 [21]
  GI50: < 10 nM
MCF7 [22]
  GI50: < 10 nM
HL-60(TB)
  GI50: < 10 nM
K562 [26]
  GI50: < 10 nM
CCRF-CEM
  GI50: < 10 nM
NCI-H522
  GI50: < 10 nM
NCI-H322M
  GI50: < 10 nM
KM12
  GI50: < 10 nM
SW-620
  GI50: < 10 nM
HCT-15
  GI50: < 10 nM
M14
  GI50: < 10 nM
MDA-MB-435
  GI50: < 10 nM
LOX IMVI
  GI50: < 10 nM
OVCAR-3
  GI50: < 10 nM
NCI/ADR-RES
  GI50: < 10 nM
OVCAR-8
  GI50: < 10 nM
A498
  GI50: < 10 nM
RXF 393
  GI50: < 10 nM
SN12C
  GI50: < 10 nM
PC-3
  GI50: < 10 nM
DU-145
  GI50: < 10 nM
SF-539
  GI50: < 10 nM
SNB-75
  GI50: < 10 nM
SF-295
  GI50: < 10 nM
Hs-578T
  GI50: < 10 nM
BT-549
  GI50: < 10 nM

## COC(=O)NCCc1c(C(=O)c2ccccc2[N+](=O)[O-])[nH]c2ccccc12
A549 [21]
  IC50: 740 nM
MCF7 [22]
  IC50: 1590 nM

## COc1ccc(/C=C\c2cc(OC)c(OC)c(OC)c2)cc1O [COMBRETASTATIN A4]
EA.hy 926
  IC50: 11 nM

## CC(=O)O[C@H]1C(=O)[C@@]2(C)[C@H]([C@H](OC(=O)c3ccccc3)[C@]3(O)C[C@H](OC(=O)[C@H](O)[C@@H](NC(=O)c4ccccc4)c4ccccc4)C(C)=C1C3(C)C)[C@]1(OC(C)=O)CO[C@@H]1C[C@@H]2O [PACLITAXEL]
NCI-H460 [6]
  inhibition in vivo at 30 mg/kg: 40%
